Assay in all cases: Microdilution MIC assay (NCCLS/CLSI guidelines)
What all share (format): cell-based
Conditions in all cases: tested 0.06-32 μg/ml
A general note: In broth dilution the organism is exposed to a series of concentrations in liquid medium.

Assay [1] concerns Staphylococcus epidermidis, ATCC 12228. The protocol: (§1) Purified Eurocin was evaluated for antimicrobial activity in a microdillution assay. The
(§2) Minimal Inhibitory Concentration (MIC) was determined following the NCCLS/CLSI guidelines from CLSI (Clinical and Laboratory Standards Institute).
(§3) Eurocin was tested at the following concentrations: 32; 16; 8; 4; 2; 1; 0.50; 0.25; 0.13; and 0.06 μg/ml.

Assay [2] deals with Streptococcus pneumoniae, ATCC 49619. How it is done: as §1, §2, §3
Assay [3] relates to Enterococcus faecium, ATCC 49624. How it is done:
as §1, §2, §3

In assay [4] the test system is Staphylococcus aureus, ATCC 29213. The protocol: as §1, §2, §3
Assay [5] deals with Streptococcus pyogenes, ATCC 12344. How it is done:
as §1, §2, §3

The test system of assay [6] is Micrococcus luteus, ATCC 9341. The protocol: as §1, §2, §3
The subject of assay [7] is Staphylococcus carnosus, ATCC 51365. How it is done: as §1, §2, §3

The term MIC denotes the least concentration at which growth counts as inhibited. Read a low MIC as a more susceptible organism. On to “Eurocin: antimicrobial polypeptide shown as amino acids 1 to 42 of SEQ ID NO:2, from Eurotium amstelodami, expressed in Aspergillus oryzae (MHFTKVSTILFTIFAAGIMAAPTEGVREEAAPGQEVYPDEPP; listed as Eurotium amstelodami)”, for which the minimum inhibitory concentration (MIC) came out at 16 µg/mL in assay [1]; 0.25 µg/mL in assay [2]; 16 µg/mL in assay [3]; 16 µg/mL in assay [4]; 0.13 µg/mL in assay [5]; 0.5 µg/mL in assay [6]. The substance also showed an MIC in assay [7] of 8 µg/mL.

Source of the values: patent US8192925B2, “Polypeptides having antimicrobial activity and polynucleotides encoding same” (Novozymes Adenium Biotech A/S, priority 2004, dated 2012).
